PubChem BioAssay AID248 (DTP/NCI, 2004)
Several values for one entry are separate records, joined by “and”; a condition that tells them apart may be missing. Identical values can stand only once. Toxic doses and inconclusive results are not listed.

Test system: L1210 leukemia ip in BDF1 mice, survival T/C
Test: NCI In Vivo Anticancer Drug Screen. Data for tumor model L1210 Leukemia (intraperitoneal) in B6D2F1 (BDF1) mice
Details: endpoint: mean survival time, higher = longer survival
Procedure, shortened: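 Each compound was tested against a transplantable tumor grown in mice. The endpoint was survival, with treated animals benchmarked against vehicle controls as a simple ratio.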

[1] = dose: 300.0 mg/kg/injection, schedule: Q01DX001 (ip), vehicle: carboxymethylcellulose (CMC)
[2] = dose: 100.0 mg/kg/injection, schedule: Q04DX003 (ip), vehicle: saline
[3] = dose: 200.0 mg/kg/injection, schedule: Q04DX003 (ip), vehicle: saline
[4] = dose: 50.0 mg/kg/injection, schedule: Q01DX009 (ip), vehicle: Klucel (hydroxypropylcellulose) (HPC)
[5] = dose: 100.0 mg/kg/injection, schedule: Q01DX009 (ip), vehicle: Klucel (hydroxypropylcellulose) (HPC)
[6] = dose: 100.0 mg/kg/injection, schedule: Q04DX003 (ip), vehicle: Klucel (hydroxypropylcellulose) (HPC)
[7] = dose: 200.0 mg/kg/injection, schedule: Q01DX009 (ip), vehicle: Klucel (hydroxypropylcellulose) (HPC)
[8] = dose: 200.0 mg/kg/injection, schedule: Q04DX003 (ip), vehicle: Klucel (hydroxypropylcellulose) (HPC)
[9] = dose: 400.0 mg/kg/injection, schedule: Q01DX009 (ip), vehicle: Klucel (hydroxypropylcellulose) (HPC)
[10] = dose: 400.0 mg/kg/injection, schedule: Q04DX003 (ip), vehicle: Klucel (hydroxypropylcellulose) (HPC)
[11] = dose: 100.0 mg/kg/injection, schedule: Q04DX002 (ip), vehicle: saline with Tween-80
[12] = dose: 200.0 mg/kg/injection, schedule: Q04DX002 (ip), vehicle: saline with Tween-80
[13] = dose: 400.0 mg/kg/injection, schedule: Q04DX002 (ip), vehicle: saline with Tween-80
[14] = dose: 100.0 mg/kg/injection, schedule: Q04DX003 (ip), vehicle: saline with Tween-80
[15] = dose: 200.0 mg/kg/injection, schedule: Q04DX003 (ip), vehicle: saline with Tween-80
[16] = dose: 400.0 mg/kg/injection, schedule: Q04DX003 (ip), vehicle: saline with Tween-80

CCOC(=O)C(C[N+](C)(CC)CC)c1ccccc1 (stereo unspecified) was tested, and the T/C (dose: 88.8 mg/kg/injection, schedule: Q01DX001 (ip), vehicle: carboxymethylcellulose (CMC)) was 97 % of control and 102 % of control, the T/C (dose: 100.0 mg/kg/injection, schedule: Q01DX001 (ip), vehicle: carboxymethylcellulose (CMC)) was 113 % of control and the T/C (dose: 133.0 mg/kg/injection, schedule: Q01DX001 (ip), vehicle: carboxymethylcellulose (CMC)) was 105 % of control and 114 % of control. For the same compound, the T/C (dose: 200.0 mg/kg/injection, schedule: Q01DX001 (ip), vehicle: carboxymethylcellulose (CMC)) was 107 % of control and 118 % of control, the T/C [1] was 95 % of control and 104 % of control and the T/C (dose: 400.0 mg/kg/injection, schedule: Q01DX001 (ip), vehicle: carboxymethylcellulose (CMC)) was 98 % of control.

With C[Si](C)(C)Oc1cccc([Si](C)(C)C)c1 the T/C (dose: 100.0 mg/kg/injection, schedule: Q01DX009 (ip), vehicle: saline with Tween-80) was 97 % of control, the T/C (dose: 200.0 mg/kg/injection, schedule: Q01DX009 (ip), vehicle: saline with Tween-80) was 95 % of control and the T/C (dose: 400.0 mg/kg/injection, schedule: Q01DX009 (ip), vehicle: saline with Tween-80) was 92 % of control.

O=C(c1ccccc1)N(CCCl)C(=O)N(CCCl)C(=O)c1ccccc1 was tested, and the T/C (dose: 75.0 mg/kg/injection, schedule: Q01DX001 (ip), vehicle: carboxymethylcellulose (CMC)) was 104 % of control, the T/C (dose: 75.0 mg/kg/injection, schedule: Q01DX009 (ip), vehicle: saline with Tween-80) was 95 % of control and the T/C (dose: 75.0 mg/kg/injection, schedule: Q04DX003 (ip), vehicle: saline with Tween-80) was 91 % of control. The T/C (dose: 150.0 mg/kg/injection, schedule: Q01DX001 (ip), vehicle: carboxymethylcellulose (CMC)) was 101 % of control, the T/C (dose: 150.0 mg/kg/injection, schedule: Q01DX009 (ip), vehicle: saline with Tween-80) was 98 % of control and the T/C (dose: 150.0 mg/kg/injection, schedule: Q04DX003 (ip), vehicle: saline with Tween-80) was 92 % of control. For the same compound, the T/C [1] was 103 % of control and the T/C (dose: 300.0 mg/kg/injection, schedule: Q04DX003 (ip), vehicle: saline with Tween-80) was 89 % of control.

NC(C(=O)O)C(CC(=O)O)C(=O)O (stereo unspecified) was tested, and the T/C [2] was 93 % of control, the T/C [3] was 95 % of control and the T/C (dose: 400.0 mg/kg/injection, schedule: Q04DX003 (ip), vehicle: saline) was 98 % of control.

CSc1ncc(C(=O)O)c(=O)[nH]1 was tested, and the T/C [4] was 95 % of control, the T/C [5] was 88 % of control and 90 % of control and the T/C [6] was 104 % of control. The T/C [7] was 94 % of control, the T/C [8] was 101 % of control and the T/C [9] was 88 % of control. For the same compound, the T/C [10] was 102 % of control.

In the case of CN(C)CC(=O)N/N=C\c1ccc([N+](=O)[O-])s1, the T/C [2] is reported as 91 % of control and the T/C [3] is reported as 93 % of control.

For CCc1cccc(OC/C=C(\C)CCC2OC2(C)CC)c1 (stereo unspecified), the T/C [11] was 100 % of control, the T/C [12] was 100 % of control and the T/C [13] was 94 % of control.

In the case of CC(C)=CCN1CCN=C(c2ccccc2)c2cc(Cl)ccc21, the T/C [4] is reported as 100 % of control, the T/C [5] is reported as 105 % of control and the T/C [6] is reported as 102 % of control. The T/C [7] was 94 % of control, the T/C [8] was 98 % of control and the T/C [10] was 93 % of control.

CNC(=O)Nc1ccccc1 was tested, and the T/C [14] was 94 % of control, the T/C [15] was 90 % of control and the T/C [16] was 94 % of control.

In the case of Oc1ccc2ccc(O)cc2c1, the T/C (dose: 100.0 mg/kg/injection, schedule: Q04DX002 (ip), vehicle: Klucel (hydroxypropylcellulose) (HPC)) is reported as 105 % of control, the T/C (dose: 200.0 mg/kg/injection, schedule: Q04DX002 (ip), vehicle: Klucel (hydroxypropylcellulose) (HPC)) is reported as 108 % of control and the T/C (dose: 400.0 mg/kg/injection, schedule: Q04DX002 (ip), vehicle: Klucel (hydroxypropylcellulose) (HPC)) is reported as 102 % of control.

COC(=O)c1ccc(OCCOc2ccc(C(C)(C)CC(C)(C)C)cc2)c([N+](=O)[O-])c1 was tested, and the T/C [14] was 91 % of control, the T/C [15] was 93 % of control and the T/C [16] was 91 % of control.

For CCOC(=O)c1ccc(N=Cc2cc(Cl)cc(Cl)c2O)cc1, the T/C (dose: 100.0 mg/kg/injection, schedule: Q01DX001 (ip), vehicle: saline) was 95 % of control, the T/C (dose: 200.0 mg/kg/injection, schedule: Q01DX001 (ip), vehicle: saline) was 100 % of control and the T/C (dose: 400.0 mg/kg/injection, schedule: Q01DX001 (ip), vehicle: saline) was 93 % of control.

O=c1ccsc2ccccc12 was tested, and the T/C (dose: 25.0 mg/kg/injection, schedule: Q01DX001 (ip), vehicle: saline with Tween-80) was 103 % of control, the T/C (dose: 50.0 mg/kg/injection, schedule: Q01DX001 (ip), vehicle: saline with Tween-80) was 97 % of control and the T/C (dose: 100.0 mg/kg/injection, schedule: Q01DX001 (ip), vehicle: saline with Tween-80) was 105 % of control and 92 % of control.

COC(=O)c1cc(Cl)ccc1OCC(=O)Nc1ccc([N+](=O)[O-])cc1 was tested, and the T/C [5] was 98 % of control, the T/C [6] was 102 % of control and the T/C [7] was 93 % of control. For the same compound, the T/C [8] was 95 % of control, the T/C [9] was 105 % of control and the T/C [10] was 103 % of control.

For CCn1c2ccccc2c2c(C)c3cnccc3c(C)c21, the T/C (dose: 37.5 mg/kg/injection, schedule: Q04DX003 (ip), vehicle: saline) was 94 % of control, the T/C (dose: 62.5 mg/kg/injection, schedule: Q01DX009 (ip), vehicle: saline with Tween-80) was 193 % of control and the T/C (dose: 75.0 mg/kg/injection, schedule: Q04DX003 (ip), vehicle: saline) was 90 % of control. For the same compound, the T/C (dose: 125.0 mg/kg/injection, schedule: Q01DX009 (ip), vehicle: saline with Tween-80) was 101 % of control, the T/C (dose: 150.0 mg/kg/injection, schedule: Q04DX003 (ip), vehicle: saline) was 92 % of control and the T/C (dose: 250.0 mg/kg/injection, schedule: Q01DX009 (ip), vehicle: saline with Tween-80) was 105 % of control. The T/C (dose: 300.0 mg/kg/injection, schedule: Q04DX003 (ip), vehicle: saline) was 94 % of control.

With CC(C)(C)c1cc(O)cc(C(C)(C)C)c1 the T/C [11] was 100 % of control, the T/C [12] was 97 % of control and the T/C [13] was 100 % of control.

In the case of COc1ccc(/C=C(/C(=O)O)c2ccc(OC)cc2)cc1, the T/C (dose: 100.0 mg/kg/injection, schedule: Q04DX003 (ip), vehicle: other) is reported as 98 % of control, the T/C (dose: 200.0 mg/kg/injection, schedule: Q04DX003 (ip), vehicle: other) is reported as 95 % of control and the T/C (dose: 400.0 mg/kg/injection, schedule: Q04DX003 (ip), vehicle: other) is reported as 95 % of control.

With c1ccc(Nc2nnc(Nc3ccccn3)c3ccccc23)nc1 the T/C [14] was 95 % of control, the T/C [15] was 93 % of control and the T/C [16] was 96 % of control.

With O=C(c1ccccc1)C(C(=O)c1ccccc1)C(C[N+](=O)[O-])c1ccccc1 (stereo unspecified) the T/C (dose: 100.0 mg/kg/injection, schedule: Q01DX001 (ip), vehicle: gum acacia) was 86 % of control, the T/C (dose: 200.0 mg/kg/injection, schedule: Q01DX001 (ip), vehicle: gum acacia) was 86 % of control and the T/C (dose: 400.0 mg/kg/injection, schedule: Q01DX001 (ip), vehicle: gum acacia) was 90 % of control.

NNC12CC3CC(CC(C3)C1)C2 was tested, and the T/C (dose: 1.56 mg/kg/injection, schedule: Q01DX009 (ip), vehicle: saline) was 100 % of control, the T/C (dose: 3.12 mg/kg/injection, schedule: Q01DX009 (ip), vehicle: saline) was 100 % of control and the T/C (dose: 6.25 mg/kg/injection, schedule: Q01DX009 (ip), vehicle: saline) was 100 % of control. For the same compound, the T/C (dose: 12.5 mg/kg/injection, schedule: Q01DX009 (ip), vehicle: saline) was 110 % of control and 90 % of control, the T/C (dose: 12.5 mg/kg/injection, schedule: Q04DX003 (ip), vehicle: saline) was 105 % of control and the T/C (dose: 25.0 mg/kg/injection, schedule: Q04DX003 (ip), vehicle: saline) was 118 % of control. For the same compound, the T/C (dose: 50.0 mg/kg/injection, schedule: Q04DX003 (ip), vehicle: saline) was 96 % of control.

With CC(=O)Nc1ccc(OCCOc2cccc(C)c2)cc1 the T/C (dose: 100.0 mg/kg/injection, schedule: Q01DX001 (ip), vehicle: Klucel (hydroxypropylcellulose) (HPC)) was 103 % of control, the T/C (dose: 200.0 mg/kg/injection, schedule: Q01DX001 (ip), vehicle: Klucel (hydroxypropylcellulose) (HPC)) was 100 % of control and the T/C (dose: 400.0 mg/kg/injection, schedule: Q01DX001 (ip), vehicle: Klucel (hydroxypropylcellulose) (HPC)) was 105 % of control.

Nc1cccc2c1C(=O)c1cccc(Cl)c1C2=O was tested, and the T/C [14] was 94 % of control, the T/C [15] was 101 % of control and the T/C [16] was 94 % of control.
